Laboratory results reported in article PMC7313537 (PLoS ONE, 2020).

Assays:
[1] = Intrinsic clearance in liver microsomes; assay type: in vitro ADME
Experimental: Aliquots were taken at 0, 10, 20, and 30 minutes and denatured with methanol. After centrifugation to remove the denatured proteins, the resulting supernatants were analyzed by LC/MS

[2] = molecular target: CHEK1 (Homo sapiens, UniProt O14757); assay: Enzyme selectivity panel; assay type: biochemical; details: 1 mM ATP
Experimental: (§1) The kinase assays were carried out at room temperature in HEPES 50 mM, pH 7.0, NaN3 0.02%, BSA 0.01%, Orthovanadate 0.1 mM, DTT 1 mM, MgCl2 10 mM in a final volume of 10 µL. Test compounds were transferred to the plate wells by ECHO liquid handler (Labcyte, San Jose, CA) with 0.5% dimethyl sulfoxide (DMSO) in the final assay. Peptide/kinase mixtures were diluted in the appropriate enzymatic buffer and 5µL of the mixture was added to a 384-well small volume black plate. Reactions were initiated by the addition of 5 µL ATP in reaction buffer, the final reaction mixture consisted of 500 nM peptide substrate, 1 mM ATP, and appropriate amount of specific kinase. […] The plates were then sealed and centrifuged at 1800 rpm for 2 minutes. […] Half maximal inhibitory concentration (IC50) determination was performed by fitting the curve of percent control activity versus the log of the compound concentration using the GraphPad Prism 6.0 software.

[3] = molecular target: LRRK2 (Homo sapiens, UniProt Q5S007); assay: Enzyme selectivity panel; assay type: biochemical; details: 1 mM ATP
Experimental: as §1

[4] = molecular target: T1, PIM2 (Homo sapiens, UniProt Q9P1W9); assay: Enzyme selectivity panel; assay type: biochemical; details: 1 mM ATP
T1 construct: purchased In-house HTRF panel (56 kinases) and PerkinElmer (161-kinase panel)
Experimental: as §1

[5] = Pharmacokinetic analyses; assay type: in vivo, beagle dogs; details: male dog
Experimental: The i.v. formulation in rats was 5% dimethylacetamide (DMAC) and 25% sulfobutyl ether β-cyclodextrin in acidified saline (pH 3). The i.v. formulation in dogs and monkeys was 5% DMAC and 20% sulfobutyl ether β-cyclodextrin in saline. The oral formulation in all species was 5% DMAC in 0.5% methylcellulose aqueous solution. For rats, blood samples were collected at predose, 5 (i.v. dosing only), 15, and 30 minutes, and 1, 2, 4, 6, 8, and 24 hours. For dogs, blood samples were collected at predose, 2.5 and 5 (i.v. dosing only), 15, and 30 minutes, and 1, 2, 3, 4, 6, 8, 12, and 24 hours postdose. For monkeys, blood samples were collected at predose, 5 and 10 (i.v. dosing only), 15, and 30 minutes, and 1, 2, 3, 4, 6, 8, 12, 16, and 24 hours postdose. Collected blood samples were processed to extract plasma by centrifugation and stored at −20 °C until analysis.
The plasma was protein precipitated and the diluted supernatant was analyzed using LC/MS/MS. A standard curve was prepared in plasma from 1 to 5,000 nM and processed in the same manner as the samples. The pharmacokinetic parameters were determined using WinNonLin 6.3.

[6] = tested on: phospho-FRS2 and phospho-ERK in RT-4 cells (FGFR3-TACC3); assay: Western blot of FGFR pathway markers; assay type: cell-based; details: 2 hours
Source text: All antibodies were purchased from commercial sources as follows: antibodies against FGFR1 (monoclonal [rabbit], catalogue no. 9740, Antibody Registry Identifier AB_11178519), ERK (monoclonal [mouse], 9107, AB_10695739), phospho-p42/44 ERK1/2 (monoclonal [rabbit], 4370, AB_2315112), phospho-STAT5 (Tyr694; monoclonal [rabbit], 4322, AB_10544692), and STAT5 (monoclonal [rabbit], 9358, AB_659905) were from Cell Signaling Technologies (Danvers, MA) and used at 1:1000 dilution; FGFR3 (monoclonal [rabbit], AB133644, AB_2810262) and FRS2 (polyclonal [rabbit], AB10425, AB_2247176) were from Abcam (Cambridge, UK) and used at 1:2000; and phospho-FRS2 (Tyr436; polyclonal [rabbit], AF5126, AB_2106234) was from R&D Systems (Minneapolis, MN) and used at 1 μg/mL. The pFGFR2 enzyme-linked immunosorbent assay (ELISA) kit was purchased from R&D Systems and ELISA was performed per manufacturer protocol.
Original Western blot images are shown in S1 File (S1 Raw images).

[7] = molecular target: IKKB (Homo sapiens, UniProt O14920); assay: Enzyme selectivity panel; assay type: biochemical; details: 1 mM ATP
Experimental: as §1

[8] = tested on: A549; assay: Cell viability assay (CellTiter-Glo); assay type: cell-based; details: Homo sapiens, Lung cancer, lacking FGFR alterations
[9] = tested on: KMS-11 (myeloma); assay: Cell viability assay (CellTiter-Glo); assay type: cell-based; details: Homo sapiens, IgH-FGFR3 translocation, 72 hours, read-out: Mean GI50 ± S.D.
[10] = molecular target: T2, DDR2 (Homo sapiens, UniProt Q16832); assay: Enzyme selectivity panel; assay type: biochemical; details: 1 mM ATP
T2 construct: purchased In-house HTRF panel (56 kinases) and PerkinElmer (161-kinase panel)
Experimental: as §1

[11] = tested on: KG1a (AML); assay: Cell viability assay (CellTiter-Glo); assay type: cell-based; details: Homo sapiens, KG-1a; FGFR1OP2-FGFR1 fusion; 72 hours; read-out: Mean GI50 ± S.D.
[12] = molecular target: EGFR (Homo sapiens, UniProt P00533); assay: Enzyme selectivity panel; assay type: biochemical; details: 1 mM ATP
Experimental: as §1

[13] = molecular target: RSK2 (Homo sapiens, UniProt P51812); assay: Enzyme selectivity panel; assay type: biochemical; details: 1 mM ATP
Experimental: as §1

[14] = tested on: phospho-FGFR3 in RT-112 cells; details: proximity ligation assay
[15] = tested on: KG1 (FGFROP2-FGFR1 fusion positive) AML model; assay: KG1 xenograft efficacy; details: 0.3 mg/kg once daily, oral, 14 days; P < 0.05
Experimental: The inoculation was performed subcutaneously on the right flank. The treatment of tumor bearing mice was started 7 days after tumor inoculation.

[16] = molecular target: MINK (Homo sapiens, UniProt Q8N4C8); assay: Enzyme selectivity panel; assay type: biochemical; details: 1 mM ATP
Experimental: as §1

[17] = molecular target: PAK4 (Homo sapiens, UniProt O96013); assay: Enzyme selectivity panel; assay type: biochemical; details: 1 mM ATP
Experimental: as §1

[18] = molecular target: T3, SGK2 (Homo sapiens, UniProt Q9HBY8); assay: Enzyme selectivity panel; assay type: biochemical; details: 1 mM ATP
T3 construct: purchased In-house HTRF panel (56 kinases) and PerkinElmer (161-kinase panel)
Experimental: as §1

[19] = molecular target: CHEK2 (Homo sapiens, UniProt O96017); assay: Enzyme selectivity panel; assay type: biochemical; details: 1 mM ATP
Experimental: as §1

[20] = molecular target: ERBB4 (Homo sapiens, UniProt Q15303); assay: Enzyme selectivity panel; assay type: biochemical; details: 1 mM ATP
Experimental: as §1

[21] = molecular target: T4, AXL (Homo sapiens, UniProt P30530); assay: Enzyme selectivity panel; assay type: biochemical; details: 1 mM ATP
T4 construct: purchased In-house HTRF panel (56 kinases) and PerkinElmer (161-kinase panel)
Experimental: as §1

[22] = molecular target: T5, PDGFR BETA (Homo sapiens, UniProt P09619); assay: Enzyme selectivity panel; assay type: biochemical; details: 1 mM ATP
T5 construct: purchased In-house HTRF panel (56 kinases) and PerkinElmer (161-kinase panel)
Experimental: as §1

[23] = molecular target: T6, SRC (Homo sapiens, UniProt P12931); assay: Enzyme selectivity panel; assay type: biochemical; details: 1 mM ATP
T6 construct: purchased In-house HTRF panel (56 kinases) and PerkinElmer (161-kinase panel)
Experimental: as §1

[24] = tested on: OPM-2 (myeloma); assay: Cell viability assay (CellTiter-Glo); assay type: cell-based; details: Homo sapiens, IgH-FGFR3 translocation, 72 hours, read-out: Mean GI50 ± S.D.
[25] = molecular target: TIE2 (Homo sapiens, UniProt Q02763); assay: Enzyme selectivity panel; assay type: biochemical; details: 1 mM ATP
Experimental: as §1

[26] = molecular target: MSSK1 (Homo sapiens, UniProt Q9UPE1); assay: Enzyme selectivity panel; assay type: biochemical; details: 1 mM ATP
Experimental: as §1

T1 sequence (Q9P1W9 whole entry, species assumed): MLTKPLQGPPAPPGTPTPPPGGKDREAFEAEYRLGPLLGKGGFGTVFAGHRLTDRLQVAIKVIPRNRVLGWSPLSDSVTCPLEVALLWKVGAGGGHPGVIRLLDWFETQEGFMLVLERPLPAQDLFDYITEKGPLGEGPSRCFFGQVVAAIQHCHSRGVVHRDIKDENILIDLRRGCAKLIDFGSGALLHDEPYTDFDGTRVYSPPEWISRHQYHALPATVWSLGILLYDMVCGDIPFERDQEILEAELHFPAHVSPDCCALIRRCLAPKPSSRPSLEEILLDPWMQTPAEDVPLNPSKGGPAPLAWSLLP
Chain of MINK (Q8N4C8 whole entry): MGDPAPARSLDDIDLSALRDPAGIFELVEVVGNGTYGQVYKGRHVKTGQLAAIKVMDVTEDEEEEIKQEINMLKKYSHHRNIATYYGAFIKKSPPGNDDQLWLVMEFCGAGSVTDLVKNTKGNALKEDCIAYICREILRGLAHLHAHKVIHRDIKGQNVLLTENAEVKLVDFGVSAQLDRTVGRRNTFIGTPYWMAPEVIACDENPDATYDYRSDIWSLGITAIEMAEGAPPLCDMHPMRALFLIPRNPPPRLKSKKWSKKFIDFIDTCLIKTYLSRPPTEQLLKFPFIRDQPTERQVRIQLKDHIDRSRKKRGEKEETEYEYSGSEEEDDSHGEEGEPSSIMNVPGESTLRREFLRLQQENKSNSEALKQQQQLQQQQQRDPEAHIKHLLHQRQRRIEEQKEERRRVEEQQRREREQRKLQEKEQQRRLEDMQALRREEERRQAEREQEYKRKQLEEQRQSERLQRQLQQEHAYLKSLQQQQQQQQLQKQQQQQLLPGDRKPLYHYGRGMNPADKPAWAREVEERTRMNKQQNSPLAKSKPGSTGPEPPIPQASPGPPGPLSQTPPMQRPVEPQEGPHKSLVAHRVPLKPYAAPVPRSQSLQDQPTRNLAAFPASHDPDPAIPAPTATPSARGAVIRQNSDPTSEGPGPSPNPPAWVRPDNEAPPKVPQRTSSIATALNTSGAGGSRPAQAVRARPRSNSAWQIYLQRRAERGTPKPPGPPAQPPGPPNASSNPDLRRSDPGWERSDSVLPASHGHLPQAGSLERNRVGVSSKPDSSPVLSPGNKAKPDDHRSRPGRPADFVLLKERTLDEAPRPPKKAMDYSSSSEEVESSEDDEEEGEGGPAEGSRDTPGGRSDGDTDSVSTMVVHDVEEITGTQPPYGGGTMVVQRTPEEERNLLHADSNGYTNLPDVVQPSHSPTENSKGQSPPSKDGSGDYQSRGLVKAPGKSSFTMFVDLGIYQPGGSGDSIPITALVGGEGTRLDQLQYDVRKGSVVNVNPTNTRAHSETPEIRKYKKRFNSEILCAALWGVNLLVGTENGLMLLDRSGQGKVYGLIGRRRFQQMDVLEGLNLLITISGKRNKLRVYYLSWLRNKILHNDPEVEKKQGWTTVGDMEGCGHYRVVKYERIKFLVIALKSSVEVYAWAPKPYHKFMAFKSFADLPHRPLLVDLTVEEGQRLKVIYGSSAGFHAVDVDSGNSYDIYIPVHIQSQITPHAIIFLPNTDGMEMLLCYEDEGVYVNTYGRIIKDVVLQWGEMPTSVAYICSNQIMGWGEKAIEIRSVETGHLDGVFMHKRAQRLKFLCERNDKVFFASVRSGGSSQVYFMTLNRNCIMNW
Chain of IKKB (O14920 whole entry, species assumed): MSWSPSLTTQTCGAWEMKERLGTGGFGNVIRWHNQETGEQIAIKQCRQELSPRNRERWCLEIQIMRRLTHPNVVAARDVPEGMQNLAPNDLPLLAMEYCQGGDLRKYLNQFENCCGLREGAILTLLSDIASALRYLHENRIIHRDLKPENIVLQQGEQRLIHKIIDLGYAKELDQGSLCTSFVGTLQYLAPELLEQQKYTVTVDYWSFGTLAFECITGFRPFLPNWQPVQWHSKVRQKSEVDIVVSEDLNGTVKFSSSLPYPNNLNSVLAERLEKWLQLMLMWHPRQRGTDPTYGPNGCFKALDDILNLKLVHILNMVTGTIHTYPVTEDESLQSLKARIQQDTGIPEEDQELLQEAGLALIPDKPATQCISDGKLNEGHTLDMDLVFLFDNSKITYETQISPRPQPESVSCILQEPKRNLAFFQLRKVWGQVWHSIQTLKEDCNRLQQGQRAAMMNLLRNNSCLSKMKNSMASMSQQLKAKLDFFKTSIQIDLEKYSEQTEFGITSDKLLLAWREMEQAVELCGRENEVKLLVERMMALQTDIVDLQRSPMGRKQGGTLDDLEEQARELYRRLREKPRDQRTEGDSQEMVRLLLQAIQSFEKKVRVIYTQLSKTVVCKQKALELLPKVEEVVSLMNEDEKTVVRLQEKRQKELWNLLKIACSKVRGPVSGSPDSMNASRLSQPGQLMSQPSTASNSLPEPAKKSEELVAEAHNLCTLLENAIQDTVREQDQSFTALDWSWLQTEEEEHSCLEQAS
T2 sequence (Q16832 22-855, species assumed): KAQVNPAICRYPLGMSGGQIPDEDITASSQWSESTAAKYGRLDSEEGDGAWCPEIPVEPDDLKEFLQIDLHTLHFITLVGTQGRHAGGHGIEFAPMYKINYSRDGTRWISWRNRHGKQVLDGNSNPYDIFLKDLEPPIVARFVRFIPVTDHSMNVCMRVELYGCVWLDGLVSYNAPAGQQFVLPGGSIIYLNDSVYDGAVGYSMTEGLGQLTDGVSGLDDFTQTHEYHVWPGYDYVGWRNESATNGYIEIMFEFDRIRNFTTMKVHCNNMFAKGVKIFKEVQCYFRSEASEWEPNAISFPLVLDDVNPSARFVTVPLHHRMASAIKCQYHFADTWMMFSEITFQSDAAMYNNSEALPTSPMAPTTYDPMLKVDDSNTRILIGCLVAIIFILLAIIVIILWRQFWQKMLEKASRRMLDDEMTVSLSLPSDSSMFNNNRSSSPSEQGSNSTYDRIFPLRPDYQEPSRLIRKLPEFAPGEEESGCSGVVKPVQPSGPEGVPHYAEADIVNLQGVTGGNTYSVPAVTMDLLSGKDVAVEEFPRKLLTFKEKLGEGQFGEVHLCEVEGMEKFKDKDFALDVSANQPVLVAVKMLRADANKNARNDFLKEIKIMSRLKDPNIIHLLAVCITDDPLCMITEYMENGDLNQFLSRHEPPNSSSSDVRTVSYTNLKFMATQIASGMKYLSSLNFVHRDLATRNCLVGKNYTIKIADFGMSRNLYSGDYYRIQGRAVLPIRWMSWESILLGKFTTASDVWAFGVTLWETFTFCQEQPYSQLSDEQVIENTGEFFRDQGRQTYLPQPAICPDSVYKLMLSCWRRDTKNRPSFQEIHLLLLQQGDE
Chain of PAK4 (O96013 whole entry, species assumed): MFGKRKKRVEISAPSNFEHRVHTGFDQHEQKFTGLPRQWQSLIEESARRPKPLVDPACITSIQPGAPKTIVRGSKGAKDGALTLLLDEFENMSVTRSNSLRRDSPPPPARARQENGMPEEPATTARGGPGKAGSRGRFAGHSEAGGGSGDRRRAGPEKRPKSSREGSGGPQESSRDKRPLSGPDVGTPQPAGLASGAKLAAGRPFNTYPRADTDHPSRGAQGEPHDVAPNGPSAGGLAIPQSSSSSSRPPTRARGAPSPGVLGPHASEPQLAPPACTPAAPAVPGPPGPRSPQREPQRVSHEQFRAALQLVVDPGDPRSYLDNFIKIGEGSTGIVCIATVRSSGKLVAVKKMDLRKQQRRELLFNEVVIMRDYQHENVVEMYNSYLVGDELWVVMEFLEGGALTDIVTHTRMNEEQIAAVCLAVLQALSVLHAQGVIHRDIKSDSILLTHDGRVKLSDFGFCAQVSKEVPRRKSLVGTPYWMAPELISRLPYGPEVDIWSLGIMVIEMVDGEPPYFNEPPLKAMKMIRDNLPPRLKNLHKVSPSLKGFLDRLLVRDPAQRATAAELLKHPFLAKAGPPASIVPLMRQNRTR
Chain of CHEK2 (O96017 whole entry, species assumed): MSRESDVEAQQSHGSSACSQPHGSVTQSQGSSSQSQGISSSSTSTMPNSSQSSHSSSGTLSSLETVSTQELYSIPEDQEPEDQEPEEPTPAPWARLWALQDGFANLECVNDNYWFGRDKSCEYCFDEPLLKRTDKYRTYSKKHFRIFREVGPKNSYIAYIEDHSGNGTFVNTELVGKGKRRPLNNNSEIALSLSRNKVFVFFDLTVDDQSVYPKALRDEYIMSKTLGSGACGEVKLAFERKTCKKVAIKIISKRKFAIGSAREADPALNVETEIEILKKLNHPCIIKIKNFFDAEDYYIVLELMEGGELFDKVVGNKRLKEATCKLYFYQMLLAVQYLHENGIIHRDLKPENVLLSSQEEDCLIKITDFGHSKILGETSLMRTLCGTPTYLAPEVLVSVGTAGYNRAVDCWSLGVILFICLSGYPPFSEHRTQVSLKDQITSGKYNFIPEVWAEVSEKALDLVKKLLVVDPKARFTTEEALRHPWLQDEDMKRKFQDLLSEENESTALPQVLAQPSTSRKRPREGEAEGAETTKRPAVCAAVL
T3 sequence (Q9HBY8 whole entry, species assumed): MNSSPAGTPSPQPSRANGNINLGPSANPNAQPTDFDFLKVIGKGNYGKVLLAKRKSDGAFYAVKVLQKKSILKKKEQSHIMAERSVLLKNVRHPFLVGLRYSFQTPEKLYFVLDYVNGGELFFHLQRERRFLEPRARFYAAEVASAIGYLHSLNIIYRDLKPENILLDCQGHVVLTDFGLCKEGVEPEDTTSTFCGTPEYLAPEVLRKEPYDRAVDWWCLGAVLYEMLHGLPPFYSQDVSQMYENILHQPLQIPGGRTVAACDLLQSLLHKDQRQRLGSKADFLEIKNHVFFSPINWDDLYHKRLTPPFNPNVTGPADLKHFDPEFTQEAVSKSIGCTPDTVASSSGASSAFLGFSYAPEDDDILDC

Compound: CCN1C(=O)N(c2c(F)c(OC)cc(OC)c2F)Cc2cnc3[nH]c(CN4CCOCC4)cc3c21 [INCB054828, pemigatinib]
- Intrinsic clearance ([1]; human liver microsomes): moderate metabolic stability
- CLint scaled at 1 μM ([1]; human, pH 7.4): 13.3 mL/min/kg
- IC50 [2]: > 10 µM
- IC50 [3]: > 10 µM
- IC50 [4]: > 10 µM
- clearance ([5]; beagle, plasma, intravenous 1 mg/kg): 3.05 mL/min/kg
- Cmax ([5]; beagle, plasma, oral 2 mg/kg): 1770 nM
- bioavailability ([5]; beagle, plasma, oral 2 mg/kg): 98%
- Vss ([5]; intravenous 1 mg/kg): 3.49 L/kg
- t½ ([5]; intravenous 1 mg/kg): 15.7 h
- Hepatic ER ([5]; intravenous 1 mg/kg, % of hepatic blood flow): 10%
- AUC ([5]; oral 2 mg/kg): 22.1 µM·h
- levels of phospho-FRS2 and phospho-ERK [6]: strongly suppresses
- IC50 [7]: > 10 µM
- GI50 [8]: > 5 µM
- GI50 [9]: 0.362 ± 0.282 µM
- IC50 [10]: > 10 µM
- GI50 [11]: 0.003 ± 0.001 µM
- IC50 [12]: > 10 µM
- IC50 [13]: > 10 µM
- potent inhibition of FGFR3 (phospho-FGFR3), concentration [14]: < 10 nM
- efficacy against subcutaneous xenograft [15]: significant efficacy
- IC50 [16]: > 10 µM
- IC50 [17]: > 10 µM
- IC50 [18]: > 10 µM
- IC50 [19]: > 10 µM
- IC50 [20]: > 10 µM
- IC50 [21]: > 10 µM
- IC50 [22]: 1.79 µM
- IC50 [23]: > 10 µM
- GI50 [24]: 0.018 ± 0.009 µM
- IC50 [25]: > 10 µM
- IC50 [26]: > 10 µM
